Measurements as given in patent US8987287B2, “Spirocyclic morphinans and their use” (Purdue Pharma L.P., priority 2012, dated 2015).

Legend:
δ opioid receptor [1] = molecular target: T1, δ opioid receptor (Homo sapiens (Human), UniProt P41143); assay: δ-opioid receptor radioligand ([3H]-Naltrindole) dose-displacement binding assay; conditions: binding affinity
Description: δ-Opioid Receptor Binding Assay Procedures: δ-Opioid Receptor Binding Assay Procedures were conducted as follows. Radioligand dose-displacement assays used 0.3 nM [^3H]-Naltrindole (Perkin Elmer, Shelton, Conn.; 33.0 Ci/mmole) with 5 μg membrane protein (Perkin Elmer, Shelton, Conn.) in a final volume of 500 μl binding buffer (5 mM MgCl2, 5% DMSO, 50 mM Trizma base, pH 7.4). Non-specific binding was determined in the presence of 25 μM unlabeled naloxone. All reactions were performed in 96-deep well polypropylene plates for 1 hour at a temperature of about 25° C. Binding reactions were terminated by rapid filtration onto 96-well Unifilter GF/C filter plates (Perkin Elmer, Shelton, Conn.) presoaked in 0.5% polyethylenimine (Sigma). Harvesting was performed using a 96-well tissue harvester (Perkin Elmer, Shelton, Conn.) followed by five filtration washes with 500 μl ice-cold binding buffer. Filter plates were subsequently dried at 50° C. for 1-2 hours. Fifty μl/well scintillation cocktail (Perkin Elmer, Shelton, Conn.) was added and plates were counted in a Packard Top-Count for 1 min/well.
In TABLE 1, binding affinity of certain Compounds of the Invention to the μ-, δ- and κ-opioid receptors was determined as described above.

κ opioid receptor = κ opioid receptor (Homo sapiens (Human), UniProt P41145); assay: κ-opioid receptor [35S]GTPγS functional assay, HEK-293 or CHO cells; assay type: biochemical; conditions: for Emax: relative to U69,593, HEK-293 or CHO cells
Description: (§1) κ-Opioid Receptor Functional Assay Procedures: Functional [^35S]GTPγS binding assays were conducted as follows. κ opioid receptor membrane solution was prepared by sequentially adding final concentrations of 0.026 μg/μl κ membrane protein (in-house), 10 μg/mL saponin, 3 μM GDP and 0.20 nM [^35S]GTPγS to binding buffer (100 mM NaCl, 10 mM MgCl2, 20 mM HEPES, pH 7.4) on ice. The prepared membrane solution (190 μl/well) was transferred to 96-shallow well polypropylene plates containing 10 μl of 20× concentrated stock solutions of agonist prepared in DMSO. Plates were incubated for 30 min at a temperature of about 25° C. with shaking. Reactions were terminated by rapid filtration onto 96-well Unifilter GF/B filter plates (Perkin Elmer, Shelton, Conn.) using a 96-well tissue harvester (Packard) and followed by three filtration washes with 200 μl ice-cold binding buffer (10 mM NaH2PO4, 10 mM Na2HPO4, pH 7.4). Filter plates were subsequently dried at 50° C. for 2-3 hours. Fifty μl/well scintillation cocktail (Perkin Elmer, Shelton, Conn.) was added and plates were counted in a Packard Top-Count for 1 min/well.
κ-Opioid Receptor Functional Data: κ GTP EC50 is the concentration of a compound providing 50% of the maximal response for the compound at a κ receptor.
κ GTP Emax (%) is the maximal effect elicited by a compound relative to the effect elicited by U69,593.
(§2) In TABLE 2, activity response of certain Compounds of the Invention to the μ-, δ- and κ-opioid receptors was determined as described above for functional assays using HEK-293 or CHO cells.

δ opioid receptor [2] = molecular target: T1, δ opioid receptor; assay: δ-opioid receptor [35S]GTPγS functional assay, HEK-293 or CHO cells; assay type: biochemical; conditions: for Emax: relative to met-enkephalin, HEK-293 or CHO cells
Description: as §1, with “δ-Opioid” for “κ-Opioid”, “δ” for “κ”, “(Perkin Elmer, Shelton, Conn.),” for “(in-house),”, “1-2” for “2-3”, “Top-count” for “Top-Count”
δ-Opioid Receptor Functional Data: δ GTP EC50 is the concentration of a compound providing 50% of the maximal response for the compound at a δ receptor.
δ GTP Emax (%) is the maximal effect elicited by a compound relative to the effect elicited by met-enkephalin.
as §2

μ-opioid receptor = μ-opioid receptor (Homo sapiens (Human), UniProt P35372); assay: μ-opioid receptor [35S]GTPγS functional assay, HEK-293 or CHO cells; assay type: biochemical; conditions: for Emax: relative to DAMGO, HEK-293 or CHO cells
Description: μ-Opioid Receptor Functional Assay Procedures: [^35S]GTPγS functional assays were conducted using freshly thawed μ-receptor membranes prepared in-house from a cell line expressing recombinant μ opioid receptor in a HEK-293, CHO or U-2 OS cell background, or purchased from a commercial source (Perkin Elmer, Shelton, Conn.; or DiscovRx, Fremont, Calif.). Assay reactions were prepared by sequentially adding the following reagents to binding buffer (100 mM NaCl, 10 mM MgCl2, 20 mM HEPES, pH 7.4) on ice (final concentrations indicated): membrane protein (0.026 mg/mL), saponin ([…]), GDP ([…]) and [^35S]GTPγS (0.20 nM; Perkin Elmer, Shelton, Conn.). The prepared membrane solution (190 μl/well) was transferred to 96-shallow well polypropylene plates containing 10 μl of 20× concentrated stock solutions of the agonist [D-Ala^2, N-methyl-Phe^4 Gly-ol^5]-enkephalin (DAMGO) prepared in dimethyl sulfoxide (DMSO). Plates were incubated for 30 min at about 25° C. with shaking. Reactions were terminated by rapid filtration onto 96-well Unifilter GF/B filter plates (Perkin Elmer, Shelton, Conn.) using a 96-well tissue harvester (Perkin Elmer, Shelton, Conn.) followed by three filtration washes with 200 μl of ice-cold wash buffer (10 mM NaH2PO4, 10 mM Na2HPO4, pH 7.4). Filter plates were subsequently dried at 50° C. for 2-3 hours. BetaScint scintillation cocktail (Perkin Elmer, Shelton, Conn.) was added (50 μl/well) and plates were counted using a Packard Top-Count for 1 min/well. Data were analyzed using the sigmoidal dose-response curve fitting functions in GraphPad PRISM v. 3.0, or an in-house function for non-linear, sigmoidal dose-response curve-fitting.
μ-Opioid Receptor Functional Data: μ GTP EC50 is the concentration of a compound providing 50% of the maximal response for the compound at a μ-opioid receptor.
μ GTP Emax (%) is the maximal effect elicited by a compound relative to the effect elicited by DAMGO, a standard μ agonist. Generally, the μ GTP Emax (%) value measures the efficacy of a compound to treat or prevent pain or other Conditions.
as §2

T1 sequence (P41143 whole entry, looked up): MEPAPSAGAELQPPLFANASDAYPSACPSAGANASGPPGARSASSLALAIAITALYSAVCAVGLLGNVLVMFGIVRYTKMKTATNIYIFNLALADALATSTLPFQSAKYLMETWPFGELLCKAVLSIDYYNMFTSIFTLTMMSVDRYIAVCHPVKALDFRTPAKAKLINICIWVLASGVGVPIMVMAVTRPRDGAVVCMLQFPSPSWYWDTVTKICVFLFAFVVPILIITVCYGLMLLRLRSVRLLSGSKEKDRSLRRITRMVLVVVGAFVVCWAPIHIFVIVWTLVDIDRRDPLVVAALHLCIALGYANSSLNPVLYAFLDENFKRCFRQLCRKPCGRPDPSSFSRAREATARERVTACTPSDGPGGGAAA

Row | SMILES | Ki (δ opioid receptor [1]) [nM] | EC50 (κ opioid receptor) [nM] | Emax (κ opioid receptor) [%] | EC50 (δ opioid receptor [2]) [nM] | Emax (δ opioid receptor [2]) [%] | EC50 (μ-opioid receptor) [nM] | Emax (μ-opioid receptor) [%]
1 | O=C1NC(=O)[C@@]2(CC[C@@]3(O)[C@H]4Cc5ccc(O)cc5[C@@]3(CCN4CC3CC3)C2)N1 [Compound 3, (4bR,4′S,8aS,9R)-11-(cyclopropylmethyl)-3,8a-dihydroxy-5,7,8,8a,9,10-hexahydrospiro[9,4b-(epiminoethano)phenanthrene-6,4′-imidazolidine]-2′,5′-dione] | 177 ± 36.7 | 54.8 ± 12.6 | 80.2 ± 3.32 | 34.8 ± 7.78 | 42.5 ± 2.84 | > 20000 | 10.6 ± 7.11
2 | O=C1NC[C@@]2(CC[C@@]3(O)[C@H]4Cc5ccc(O)cc5[C@@]3(CCN4CC3CC3)C2)N1 [Compound 5, (4bR,4′S,8aS,9R)-11-(cyclopropylmethyl)-3,8a-dihydroxy-5,7,8,8a,9,10-hexahydrospiro[9,4b-(epiminoethano)phenanthrene-6,4′-imidazolidin]-2′-one] | 272 ± 25.3 | 67.2 ± 8.88 | 67.33 ± 0.33 | 37 ± 15 | 34.3 ± 2.91 | > 20000 | -1
